Test results published in US9221810B2, “Substituted bicyclic aromatic compounds as S-nitrosoglutathione reductase inhibitors” (Nivalis Therapeutics, Inc., priority 2010, dated 2015).

What was measured:
[1] = tested on: mouse model of ovalbumin (OVA)-induced asthma; test: Mouse model of ovalbumin (OVA)-induced asthma: MCh-induced AHR (Penh) and eosinophil infiltrate in BALF; format: in vivo; conditions: single IV dose of 10 mg/kg at 24 h prior to assessment
Procedure: A mouse model of ovalbumin (OVA)-induced asthma was used to screen GSNOR inhibitors for efficacy against methacholine (MCh)-induced bronchoconstriction/airway hyper-responsiveness. This is a widely used and well characterized model that presents with an acute, allergic asthma phenotype with similarities to human asthma. Efficacy of GSNOR inhibitors was assessed using a protocol in which GSNOR inhibitors were administered after OVA sensitization and airway challenge, and prior to challenge with MCh. Bronchoconstriction in response to challenge with increasing doses of MCh was assessed using whole body plethysmography (Penh; Buxco). The amount of eosinophil infiltrate into the bronchoaveolar lavage fluid (BALF) was also determined as a measure of lung inflammation. The effects of GSNOR inhibitors were compared to vehicles and to Combivent (inhaled; IH) as the positive control.
OVA (500 μg/ml) in PBS was mixed with equal volumes of 10% (w/v) aluminum potassium sulfate in distilled water and incubated for 60 min. at room temperature after adjustment to pH 6.5 using 10 N NaOH. After centrifugation at 750×g for 5 min, the OVA/alum pellet was resuspended to the original volume in distilled water. Mice received an intraperitoneal (IP) injection of 100 μg OVA (0.2 mL of 500 μg/mL in normal saline) complexed with alum on day 0. Mice were anesthetized by IP injection of a 0.2-mL mixture of ketamine and xylazine (0.44 and 6.3 mg/mL, respectively) in normal saline and were placed on a board in the supine position. Two hundred fifty micrograms (100 μl of a 2.5 mg/ml) of OVA (on day 8) and 125 μg (50 μl of 2.5 mg/ml) OVA (on days 15, 18, and 21) were placed on the back of the tongue of each animal.
In vivo airway responsiveness to methacholine was measured 24 h after the last OVA challenge in conscious, freely moving, spontaneously breathing mice with whole body plethysmography using a Buxco chamber (Wilmington, N.C.). […] The degree of bronchoconstriction was expressed as enhanced pause (Penh), a calculated dimensionless value, which correlates with the measurement of airway resistance, impedance, and intrapleural pressure in the same mouse. Penh readings were taken and averaged for 4 min. after each nebulization challenge. Penh is calculated as follows: Penh=[(Te/Tr−1)×(PEF/PIF)], where Te is expiration time, Tr is relaxation time, PEF is peak expiratory flow, and PIF is peak inspiratory flow×0.67 coefficient. […]
After measurement of airway hyper-reactivity, the mice were exsanguinated by cardiac puncture, and then BALF was collected from either both lungs or from the right lung after tying off the left lung at the mainstem bronchus. Total BALF cells were counted from a 0.05 mL aliquot, and the remaining fluid was centrifuged at 200×g for 10 min at 4° C. […]

[2] = Mouse pharmacokinetic (PK) study; format: in vivo, male BALB/c mice; conditions: male, BALB/c, plasma, po, 10 mg/kg, IV 2 mg/kg, read-out: oral bioavailability (% F)
Source text: The mouse was used to determine the pharmacokinetics of compounds of the invention. This species is widely used to assess the bioavailability of compounds by administering both oral (PO) and intravenous (IV) test articles. Efficacy of the compounds of the invention was compared by assessing plasma exposure in male BALB/c mice either via IV or PO administration at the times of peak activity.
Compounds of the invention were reconstituted in a phosphate buffered saline (PBS)/10% Solutol (HS 15) clear solution resulting in a concentration of 0.2 mg/mL and administered to mice (2 mg/kg) as a single IV dose. Animals were dosed via the lateral tail vein. Blood samples were collected at designated time points (0.083, 0.25, 0.5, 1, 2, 4, 8, 16, 24 hours) by cardiac puncture under isoflurane anesthesia (up to 1 mL blood per animal). The blood was collected into tubes containing Li-Heparin. The blood samples were kept on ice until centrifugation within approximately 30 minutes of collection. The plasma was transferred into labeled polypropylene tubes and frozen at −70° C. until analyzed by LC/MS/MS.
The compounds of the invention were reconstituted in 40% Propylene Glycol/40% Propylene Carbonate/20% of a 5% Sucrose clear solution resulting in a concentration of 2 mg/mL and administered to mice (10 mg/kg) as a single oral dose via gavage. Blood samples were collected at 0.25, 0.5, 1, 2, 4, 8, 12, 16, 20 and 24 hours post dose by cardiac puncture under isoflurane anesthesia. The blood was collected in tubes containing Li-Heparin. […] The plasma was transferred into labeled polypropylene tubes and frozen at −70° C. until analyzed by LC/MS/MS.
Plasma samples at each timepoint were analyzed using a LC-MS/MS with a lower limit of quantification (LLOQ) of 1 ng/mL. Plasma was analyzed to determine the amount of the compound of the invention in each sample and regression curves generated for each compounds of the invention in the relevant matrixes. […]
In addition to the above PK parameters, bioavailability (% F) was calculated.

In the case of Oc1ccc2nc(-c3ccc(-c4nnn[nH]4)cc3)ccc2c1 [Example 4, 2-(4-(1H-tetrazol-5-yl)phenyl)quinolin-6-ol], the “decrease of eosinophil infiltration into BALF” value [1] was 20 % of vehicle control, the “decrease of MCh-induced AHR” value ([1]; p<0.05) was 19 % of vehicle control and the bioavailability [2] was > 9%.
